Laboratory results from patent US20060263760A1, “Screening method of substance with antidepressant action” (THE UNIVERSITY OF TOKYO, priority 2005, published 2006).

Test system: nerve cells in hippocampus CA1 region of hippocampus sections
Experiment: long-term potentiation of excitatory postsynaptic potential (EPSP) in hippocampus sections, accumulated potential with single glass electrode
Format: cell-based, rat
Details: for EPSP reaction (ratio of largest slope value of accumulated potential to basal slope value defined as 100%): read 60 minutes after stimulation
Description: A specific example of the assessment of substances with antidepressant actions by the screening method is described below. At the cell preparation step in the Example, the brain hippocampus of an adult rat was cut vertically along the longitudinal axis using vibratome (DSK ZERO1, manufactured by DOUSAKA EM K.K), to prepare plural longitudinal cross- sectional sections of a thickness of 400 μm. In this Example, a part of the hippocampus sections is prepared as a candidate substance treatment group, while another part of the hippocampus sections is prepared as a control treatment group and an additional part of the hippocampus sections is prepared as non-treatment group. These hippocampus sections were immersed in an artificial cerebrospinal fluid sufficiently saturated with a mixture gas of oxygen and carbon dioxide (95% oxygen gas, 5% carbon dioxide gas) and left to stand at room temperature for 1.5 hours or more under the purge of the mixture gas from the above over the hippocampus sections. Thereafter, the electrophysiological response was assayed as described below. As the artificial cerebrospinal fluid, an aqueous solution containing 124 mM NaCl, 1.25 mM NaH2PO4.2H2O, 5 mM KCl, 2 mM MgSO4.7H2O, 2 mM CaCl2, 22 mM NaHCO3, and 10 mM glucose was used. […] At the cell preparation step, additionally, the presynaptic fibers in the CA1 regions of the hippocampus sections were repeatedly stimulated at an interval of 20 seconds, using the stimulation electrode, while excitatory postsynaptic potential induced by the electric stimulation was recorded as accumulated potential over about 30 minutes. […] Therefore, it was determined to assess the dimension of the slope in the part M with the most rapid change of the accumulated potential on the stimulation [namely, the largest slope on the earlier side of the assay time period of accumulated potential waveform (on the left side)] […]

C[C@]12C[C@H](O)[C@H]3[C@@H](CCC4=CC(=O)CC[C@@]43C)[C@@H]1CC[C@@H]2C(=O)CO [corticosteron]
reduction of the level of the long-term potentiation [dimension (%) of EPSP reaction] (contact to corticosteron 1 μM versus non-treatment group, 60 minutes after high-frequency stimulation): about 20%
EPSP reaction (ratio of largest slope value of accumulated potential to basal slope value defined as 100%) (corticosteron 1 μM alone perfused 30 minutes before 100-Hz high-frequency stimulation, non-treatment group about 130%): about 110%

C[C@]12CC[C@@H]3c4ccc(O)cc4CC[C@H]3[C@@H]1CC[C@@H]2O [estradiol]
EPSP reaction (ratio of largest slope value of accumulated potential to basal slope value defined as 100%) (estradiol 1 nM together with corticosteron 1 μM perfused 30 minutes before 100-Hz high-frequency stimulation): about 130%
